Laboratory results reported in PubChem BioAssay AID651630 (Sanford-Burnham Center for Chemical Genomics, 2012).
Calls of active or inactive are those of the source.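 Rule for the calls: active = lipid-stain IC50 at or below a set limit, with nuclear-stain toxicity IC50 at least five times higher; inactive = the rest.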

What was measured:
DAPI = assay: triacylglycerol accumulation inhibitor potency, dose response, cell-based, panel, Nile Red and DAPI fluorescence, H9c2 (AID 651630); conditions: H9c2 cells, DAPI nuclear fluorescence (cytotoxicity counter-readout), oleic acid;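 note: cells exposed to compound overnight before fixation and staining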
TAG = assay: as above; conditions: H9c2 cells, Nile Red TAG fluorescence, oleic acid

IC50 (TAG; run 1) [µM]	IC50 (TAG; run 2) [µM]	IC50 (TAG; mean of runs)	SMILES	IC50 cytotoxicity (DAPI nuclear signal decrease) (DAPI; mean of runs)	IC50 cytotoxicity (DAPI nuclear signal decrease) (DAPI; run 1) [µM]	IC50 cytotoxicity (DAPI nuclear signal decrease) (DAPI; run 2) [µM]
24.4	> 25		COc1cc(Cn2c(-c3nonc3N)nc3ccccc32)ccc1C	> 25 µM (inactive)	> 25	> 25
4.97	4.31	4.64 µM	Nc1c(C(=O)Nc2ccccc2)c2nc3ccccc3nc2n1CCCN1CCOCC1		> 25	> 25
24.2	> 25		Cc1ccc2c(c1)-c1c(cnn1CC(=O)Nc1ccccc1N1CCN(C)CC1)CO2	> 25 µM (inactive)	> 25	> 25
6.39	10.8	8.6 µM	Cc1nn(-c2ccc([N+](=O)[O-])cc2)c2c1C(c1ccc(OC(F)F)cc1)N1C(=N2)C(=O)Nc2ccccc21 (stereo unspecified)	> 25 µM (inactive)	> 25	> 25
9.62	20.1	14.9 µM	C[C@@H]1CN([C@H](C)CO)C(=O)c2c(c3ccccc3n2C)-c2ccccc2CO[C@H]1CN(C)Cc1ccc(-c2ccccc2)cc1	> 25 µM (inactive)	> 25	> 25
15	23	19 µM (inactive)	Nc1c(C(=O)NC2CCCC2)c2nc3ccccc3nc2n1/N=C/c1cccnc1	> 25 µM (inactive)	> 25	> 25
24.8	> 25		COc1ccc(-n2nc(C(=O)Nc3ccc4c(c3)OCO4)c3c4ccccc4n(C)c3c2=O)cc1	> 25 µM (inactive)	> 25	> 25
7.52	10.2	8.86 µM	COc1ccc2sc(-c3ccc(N(C)C)cc3)c(C#CCCO)c2c1	> 25 µM (inactive)	> 25	> 25
> 25	> 25	> 25 µM (inactive)	Cc1nn(-c2cccc(Cl)c2)c2nc(-c3ccncc3)cc(C(=O)N3CCOCC3)c12	> 25 µM (inactive)	> 25	> 25
> 25	> 25	> 25 µM (inactive)	COc1ccc2cc3cc(C(=O)NCCc4ccc(OC)c(OC)c4)oc3nc2c1	> 25 µM (inactive)	> 25	> 25
16.1	> 25		CCCCC(=NCCc1c(C)[nH]c2ccc(OC)cc12)C1=C(O)CC(c2ccccc2)CC1=O (stereo unspecified)	> 25 µM (inactive)	> 25	> 25
> 25	> 25	> 25 µM (inactive)	CCOCCOC(=O)c1[nH]c2c(c1C)C(=O)CC(c1cccs1)C2 (stereo unspecified)	> 25 µM (inactive)	> 25	> 25
> 25	> 25	> 25 µM (inactive)	O=C1C(Cl)=C(NCc2ccco2)C(=O)c2ccccc21	> 25 µM (inactive)	> 25	> 25
19.8	> 25		N#CC1=C(N)Oc2cc(Nc3ccccc3)ccc2C1c1ccncc1 (stereo unspecified)		23.2	> 25
> 25	> 25	> 25 µM (inactive)	O=C1NC(Cc2ccc(O)cc2)c2nc3ccc(Cl)cc3c(=O)n2-c2cc3ccccc3cc21 (stereo unspecified)	> 25 µM (inactive)	> 25	> 25
10.4	17.1	13.8 µM	COc1cc(C2c3cc4c(cc3OC(C)(N3CCCC3)C2C)OCO4)cc(OC)c1OC (stereo unspecified)	> 25 µM (inactive)	> 25	> 25
15.4	24.8	20.1 µM (inactive)	Cc1onc(-c2ccccc2)c1C(=O)Nc1cc(C(F)(F)F)ccc1N1CCOCC1	> 25 µM (inactive)	> 25	> 25
15.3	6.11	10.7 µM	NC(=O)N/N=C/c1c(Sc2nnnn2-c2ccccc2)nc2ccccn2c1=O	17.2 µM (inactive)	15.7	18.7
14.6	11.6	13.1 µM	Cc1ccccc1OCCNc1cc(N2CC(C)NC(C)C2)ccc1[N+](=O)[O-] (stereo unspecified)	> 25 µM (inactive)	> 25	> 25
19.9	> 25		Cc1ccc(Cl)cc1NC(=S)N/N=C/c1cccc2ccccc12	> 25 µM (inactive)	> 25	> 25
> 25	> 25	> 25 µM (inactive)	NC(Cc1ccc(Cl)cc1)c1csc(NC(=O)NCCc2ccccc2)n1 (stereo unspecified)	19.7 µM (inactive)	19	20.4
> 25	> 25	> 25 µM (inactive)	Cc1ccc(/C=N/NC(=O)c2cc(-c3cccnc3)nc3ccccc23)cc1	> 25 µM (inactive)	> 25	> 25
7.69	10.1	8.88 µM	O=C(CSc1nc2ccc(Nc3nc(N4CCOCC4)nc(N4CCOCC4)n3)cc2s1)Nc1ccccc1Cl	> 25 µM (inactive)	> 25	> 25
12.5	14.7	13.6 µM	O=[N+]([O-])c1cc(S(=O)(=O)Nc2cccc(Cl)c2)ccc1N/N=C/c1ccc(N2CCOCC2)cc1	> 25 µM (inactive)	> 25	> 25
0.828	0.954	0.891 µM	O=C1Nc2ccc(Br)cc2/C1=N\N=C\C1=C(N2CCOCC2)C(=C/c2ccccc2)/CC1		> 25	> 25
